Experimental data: patent publication US20260215418A1, “HYDROCARBON ALCOHOLS AND THEIR DERIVATIVES AS SYNERGISTS IN PESTICIDE ACTIVITY” (priority 2022, published 2026)
Like-named read-outs stand apart in the source and are kept apart here.

Key:
Blatta orientalis = settings: Blatta orientalis; for synergizing effect on Azamethiphos: synergist applied with Azamethiphos; for synergizing effect on Cypermethrin: synergist applied with Cypermethrin
Method: Method: Contact test on non-porous tile measuring 400 cm^2 at a temperature of 28° C. Test duration: up to 72 hours after exposure of the insect to the insecticidal active substance.
(§1) Three tests were performed in parallel, A, B, and C, as follows: • A) Comparative. 1 ml of Composition 2 was applied to the tile. After waiting for the complete evaporation of the solvent, 10 cockroaches were placed on top of the treated tile, starting the test. • B) According to the invention. 1 ml of Composition 8b was distributed on the tile. After waiting for the complete evaporation of the solvent, 1 ml of Composition 2 was added to the same tile. Subsequently, after waiting for the solvent to evaporate, 10 cockroaches were placed on top of the treated tile, starting the test. • C) According to the invention. 1 ml of Composition 8b was distributed on a tile. After waiting for the complete evaporation of the solvent, 10 cockroaches were placed for 30 minutes on top of the treated tile. At the end of the 30 minutes, the cockroaches were transferred to an untreated area.
Method: Contact test on non-porous tile measuring 400 cm^2 at a temperature of 28° C. Test duration: up to 120 hours after exposure of the insect to the insecticidal active substance.
as §1, with “4a” for “2”, “8d” for “8b”, “After” for “Subsequently, after”
Six tests were performed in parallel, A, B, C, D, E and F, as follows: • A) Comparative. 1 ml of Composition 9b was distributed on the tile. After waiting for the complete evaporation of the solvent, 1 ml of Composition 4a was added to the same tile. Subsequently, after waiting for the solvent to evaporate, 10 cockroaches were placed on top of the treated tile, starting the test. • B) Comparative. 1 ml of Composition 9b was distributed on a tile. After waiting for the complete evaporation of the solvent, 10 cockroaches were placed for 30 minutes on top of the treated tile. At the end of the 30 minutes, the cockroaches were transferred to an untreated area. […] 1 ml of Composition 10b was distributed on the tile. After waiting for the complete evaporation of the solvent, 1 ml of Composition 4a was added to the same tile. Subsequently, after waiting for the solvent to evaporate, 10 cockroaches were placed on top of the treated tile, starting the test. • D) Comparative. 1 ml of Composition 10b was distributed on a tile. After waiting for the complete evaporation of the solvent, 10 cockroaches were placed for 30 minutes on top of the treated tile. At the end of the 30 minutes, the cockroaches were transferred to an untreated area. […] 1 ml of Composition 8d was distributed on the tile. After waiting for the complete evaporation of the solvent, 1 ml of Composition 4a was added to the same tile. Subsequently, after waiting for the solvent to evaporate, 10 cockroaches were placed on top of the treated tile, starting the test. • F) According to the invention. 1 ml of Composition 8d was distributed on a tile. After waiting for the complete evaporation of the solvent, 10 cockroaches were placed for 30 minutes on top of the treated tile. At the end of the 30 minutes, the cockroaches were transferred to an untreated area.

Blatta lateralis = assay: Contact test on non-porous tile, Blatta lateralis; assay type: in vivo; settings: Blatta lateralis; synergist applied with Imidacloprid
Method: 1 ml of Composition 24 was distributed on the tile. […] 1 ml of Composition 20c was distributed on a tile. […] 1 ml of Composition 20d was distributed on a tile.
1 ml of Composition 24 was distributed on the tile. […] 1 ml of Composition 28 was distributed on a tile. […] Each experiment (A-B) was conducted in duplicate.
1 ml of Composition 24 was distributed on the tile. […] 1 ml of Composition 21 was distributed on a tile.
1 ml of Composition 4b was distributed on the tile. […] 1 ml of Composition 31c was distributed on a tile. […] 1 ml of Composition 31d was distributed on a tile. […] 1 ml of Composition 31d was distributed on a tile.
1 ml of Composition 24 was distributed on the tile. […] 1 ml of Composition 35 was distributed on a tile. […] 1 ml of Composition 40b was distributed on a tile. […] 1 ml of Composition 42 was distributed on a tile.

Row | Compound | synergizing effect on Azamethiphos (Blatta orientalis) | synergizing effect on Cypermethrin (Blatta orientalis) | synergizing effect on Imidacloprid (Blatta lateralis) | synergizing effect on Cypermethrin (Blatta orientalis; listed as oleic alcohol 95%)
1 | CCCCCCCC/C=C\CCCCCCCCOC(C)=O [Oleyl acetate] | fine synergizing effect | excellent-fine synergizing effect | excellent synergizing effect | –
2 | CCCCCCCCOC(=O)OCCCCCCCC [dioctyl carbonate] | good synergizing effect | synergizing effect | good synergizing effect | –
3 | Oleic alcohol [Oleic alcohol 95%] | fine synergizing effect | fine synergizing effect | same synergizing effect of PBO | superior to that shown with PBO
